We go through 16 molecules from US12714706B2, “Methods of treating small cell lung cancer with lurbinectedin formulations” (PHARMA MAR, S.A., priority 2019, dated 2026).

The nature of this data set: Analytical results and impurity profile of batches of Form A and Form B of lurbinectedin. In kind it is physicochemical. The arrangement: Impurity RRT approx. 1.10-1.11 / Impurity RRT approx. 1.12 / Impurity RRT approx. 1.27-1.34 / Impurity RRT approx. 1.29-1.30 / Impurity RRT approx. 1.30-1.32 / Impurity RRT approx. 1.28-1.37 / Impurity RRT approx. 2.37 / Impurity RRT approx. 2.41-2.52 / Impurity RRT approx. 2.85 / Impurity RRT approx. 0.66-0.69 / Impurity RRT approx. 0.72-0.76: unit not given here. From the text:
Several batches of Form A of lurbinectedin were manufactured by this method.
Several batches of Form B of lurbinectedin were manufactured by this method.

Setting [1] is: batches of Form B of lurbinectedin.
The mark [2] stands for this setting: impurity profile, batches of Form B.
Setting [3] is: impurity profile, batches of Form A.
[4] abbreviates: batches of Form A of lurbinectedin.

In the case of `COc1ccc2[nH]c3c(c2c1)CCN[C@]31CS[C@@H]2c3c(OC(C)=O)c(C)c4c(c3[C@H](COC1=O)N1[C@@H]2[C@H]2c3c(cc(C)c(OC)c3O)C[C@@H]([C@@H]1O)N2C)OCO4` [Batch 1711182-2], under setting [1], the “Residual Solvents Acetonitrile” value is “<LOQ”, the “Residual Solvents CH2Cl2” value is reported as “<LOQ”, the “Residual Solvents Methanol” value is “<LOQ” and the “Residual Solvents Pentane” value is given as “<LOQ”. Moreover, under setting [1], the “Residual Solvents Total” value is 0.0 % w/w, the “Total Impurities” value stood at 0.3 % Area and the “Water Content” value was 2.4 % w/w. For the same molecule, the “Impurity RRT aprox 0.72-0.76” value under setting [2] amounted to 0.34 % area.
With `COc1ccc2[nH]c3c(c2c1)CCN[C@]31CS[C@@H]2c3c(OC(C)=O)c(C)c4c(c3[C@H](COC1=O)N1[C@@H]2[C@H]2c3c(cc(C)c(OC)c3O)C[C@@H]([C@@H]1O)N2C)OCO4` [Batch 1711189-2], under setting [1], the “Residual Solvents Acetonitrile” value is listed as “<LOQ”, the “Residual Solvents CH2Cl2” value is reported as “<LOQ”, the “Residual Solvents Methanol” value was “<LOQ” and the “Residual Solvents Pentane” value is reported as “<LOQ”. Under setting [1], the “Residual Solvents Total” value came to 0.0 % w/w, the “Total Impurities” value stood at 0.3 % Area and the “Water Content” value is on record as 2.5 % w/w. Besides, under setting [2], the “Impurity RRT aprox 0.66-0.69” value is reported as 0.05 % area and the “Impurity RRT aprox 0.72-0.76” value was found to be 0.30 % area.
For the molecule `COc1ccc2[nH]c3c(c2c1)CCN[C@]31CS[C@@H]2c3c(OC(C)=O)c(C)c4c(c3[C@H](COC1=O)N1[C@@H]2[C@H]2c3c(cc(C)c(OC)c3O)C[C@@H]([C@@H]1O)N2C)OCO4` [Batch 1799069], under setting [1], the “Residual Solvents Acetonitrile” value was “<LOQ”, the “Residual Solvents CH2Cl2” value is reported as “<LOQ”, the “Residual Solvents Methanol” value was “<LOQ” and the “Residual Solvents Pentane” value is given as “<LOQ”. Under setting [1], the “Residual Solvents Total” value was 0.0 % w/w, the “Total Impurities” value is listed as 0.4 % Area and the “Water Content” value stood at 2.0 % w/w. Moreover, under setting [2], the “Impurity RRT aprox 0.72-0.76” value is reported as 0.31 % area and the “Impurity RRT aprox 1.10-1.11” value is recorded as 0.06 % area.
In the case of `COc1ccc2[nH]c3c(c2c1)CCN[C@]31CS[C@@H]2c3c(OC(C)=O)c(C)c4c(c3[C@H](COC1=O)N1[C@@H]2[C@H]2c3c(cc(C)c(OC)c3O)C[C@@H]([C@@H]1O)N2C)OCO4` [Batch F02], under setting [3], the “Impurity RRT approx. 0.66-0.69” value stood at 0.19, the “Impurity RRT approx. 0.72-0.76” value was determined as 0.06, the “Impurity RRT approx. 1.10-1.11” value is given as 0.17 and the “Impurity RRT approx. 1.27-1.34” value stood at 0.12. Also, under setting [3], the “Impurity RRT approx. 1.30-1.32” value is on record as 0.09, the “Impurity RRT approx. 2.41-2.52” value was 0.07 and the “Impurity RRT approx. 2.85” value is listed as 0.07.
On to `COc1ccc2[nH]c3c(c2c1)CCN[C@]31CS[C@@H]2c3c(OC(C)=O)c(C)c4c(c3[C@H](COC1=O)N1[C@@H]2[C@H]2c3c(cc(C)c(OC)c3O)C[C@@H]([C@@H]1O)N2C)OCO4` [Batch G01], for which, under setting [3], the “Impurity RRT approx. 0.66-0.69” value is given as 0.06, the “Impurity RRT approx. 0.72-0.76” value is 0.11, the “Impurity RRT approx. 1.10-1.11” value was 0.50 and the “Impurity RRT approx. 1.30-1.32” value worked out at 0.13.
Regarding `COc1ccc2[nH]c3c(c2c1)CCN[C@]31CS[C@@H]2c3c(OC(C)=O)c(C)c4c(c3[C@H](COC1=O)N1[C@@H]2[C@H]2c3c(cc(C)c(OC)c3O)C[C@@H]([C@@H]1O)N2C)OCO4` [Batch K02], under setting [3], the “Impurity RRT approx. 0.72-0.76” value is recorded as 0.09, the “Impurity RRT approx. 1.10-1.11” value came to 0.13, the “Impurity RRT approx. 1.29-1.30” value is reported as 0.07 and the “Impurity RRT approx. 1.30-1.32” value came to 0.19.
Regarding `COc1ccc2[nH]c3c(c2c1)CCN[C@]31CS[C@@H]2c3c(OC(C)=O)c(C)c4c(c3[C@H](COC1=O)N1[C@@H]2[C@H]2c3c(cc(C)c(OC)c3O)C[C@@H]([C@@H]1O)N2C)OCO4` [Batch K03], under setting [3], the “Impurity RRT approx. 0.72-0.76” value is 0.07, the “Impurity RRT approx. 1.10-1.11” value came to 0.17, the “Impurity RRT approx. 1.29-1.30” value was 0.37 and the “Impurity RRT approx. 1.30-1.32” value came to 0.08.
As to `COc1ccc2[nH]c3c(c2c1)CCN[C@]31CS[C@@H]2c3c(OC(C)=O)c(C)c4c(c3[C@H](COC1=O)N1[C@@H]2[C@H]2c3c(cc(C)c(OC)c3O)C[C@@H]([C@@H]1O)N2C)OCO4` [Batch K04], under setting [3], the “Impurity RRT approx. 1.10-1.11” value was 0.20, the “Impurity RRT approx. 1.29-1.30” value came to 0.11 and the “Impurity RRT approx. 1.30-1.32” value is listed as 0.08.
As for `COc1ccc2[nH]c3c(c2c1)CCN[C@]31CS[C@@H]2c3c(OC(C)=O)c(C)c4c(c3[C@H](COC1=O)N1[C@@H]2[C@H]2c3c(cc(C)c(OC)c3O)C[C@@H]([C@@H]1O)N2C)OCO4` [Batch M01], under setting [3], the “Impurity RRT approx. 0.72-0.76” value was 0.10, the “Impurity RRT approx. 1.10-1.11” value stood at 0.08, the “Impurity RRT approx. 1.29-1.30” value was 0.10 and the “Impurity RRT approx. 1.30-1.32” value is recorded as 0.18.
Consider `COc1ccc2[nH]c3c(c2c1)CCN[C@]31CS[C@@H]2c3c(OC(C)=O)c(C)c4c(c3[C@H](COC1=O)N1[C@@H]2[C@H]2c3c(cc(C)c(OC)c3O)C[C@@H]([C@@H]1O)N2C)OCO4` [Batch M02], for which, under setting [3], the “Impurity RRT approx. 0.72-0.76” value was 0.08, the “Impurity RRT approx. 1.10-1.11” value came out at 0.10, the “Impurity RRT approx. 1.28-1.37” value is recorded as 0.08 and the “Impurity RRT approx. 1.29-1.30” value came to 0.17. Further, the “Impurity RRT approx. 1.30-1.32” value under setting [3] is 0.08.
As for `COc1ccc2[nH]c3c(c2c1)CCN[C@]31CS[C@@H]2c3c(OC(C)=O)c(C)c4c(c3[C@H](COC1=O)N1[C@@H]2[C@H]2c3c(cc(C)c(OC)c3O)C[C@@H]([C@@H]1O)N2C)OCO4` [Batch M03], under setting [3], the “Impurity RRT approx. 0.72-0.76” value worked out at 0.12, the “Impurity RRT approx. 1.10-1.11” value came to 0.11, the “Impurity RRT approx. 1.29-1.30” value is on record as 0.10 and the “Impurity RRT approx. 1.30-1.32” value is 0.11.
Regarding `COc1ccc2[nH]c3c(c2c1)CCN[C@]31CS[C@@H]2c3c(OC(C)=O)c(C)c4c(c3[C@H](COC1=O)N1[C@@H]2[C@H]2c3c(cc(C)c(OC)c3O)C[C@@H]([C@@H]1O)N2C)OCO4` [Batch P01], under setting [4], the “Impurities Total” value is recorded as 0.3 % Area, the “Residual Solvents Acetonitrile” value worked out at 0.01 % w/w, the “Residual Solvents Dichloro-methane” value is given as “<LOQ” and the “Residual Solvents Ethyl acetate” value is “<LOQ”. Further, under setting [4], the “Residual Solvents Hexane” value was “<LOQ”, the “Residual Solvents Methanol” value is on record as 1.1 % w/w, the “Residual Solvents Pentane” value was found to be 0.2 % w/w and the “Residual Solvents Total” value came to 1.4 % w/w. Moreover, the “Water Content” value under setting [4] came to 0.9 % w/w. Besides, under setting [3], the “Impurity RRT approx. 1.10-1.11” value is given as 0.15 and the “Impurity RRT approx. 1.29-1.30” value came to 0.09.
Consider `COc1ccc2[nH]c3c(c2c1)CCN[C@]31CS[C@@H]2c3c(OC(C)=O)c(C)c4c(c3[C@H](COC1=O)N1[C@@H]2[C@H]2c3c(cc(C)c(OC)c3O)C[C@@H]([C@@H]1O)N2C)OCO4` [Batch P02], for which, under setting [4], the “Impurities Total” value is recorded as 0.4 % Area, the “Residual Solvents Acetonitrile” value is listed as “<LOQ”, the “Residual Solvents Dichloro-methane” value is reported as “<LOQ” and the “Residual Solvents Ethyl acetate” value was “<LOQ”. Besides, under setting [4], the “Residual Solvents Hexane” value came out at 0.01 % w/w, the “Residual Solvents Methanol” value is given as 1.7 % w/w, the “Residual Solvents Pentane” value is on record as 0.2 % w/w and the “Residual Solvents Total” value came to 1.9 % w/w. Further, under setting [4], the “Water Content” value turned out to be 1.2 % w/w. Under setting [3], the “Impurity RRT approx. 1.10-1.11” value came out at 0.09, the “Impurity RRT approx. 1.29-1.30” value worked out at 0.06 and the “Impurity RRT approx. 1.30-1.32” value was determined as 0.13.
With `COc1ccc2[nH]c3c(c2c1)CCN[C@]31CS[C@@H]2c3c(OC(C)=O)c(C)c4c(c3[C@H](COC1=O)N1[C@@H]2[C@H]2c3c(cc(C)c(OC)c3O)C[C@@H]([C@@H]1O)N2C)OCO4` [Batch P03], under setting [4], the “Impurities Total” value was determined as 0.3 % Area, the “Residual Solvents Acetonitrile” value is recorded as “<LOQ”, the “Residual Solvents Dichloro-methane” value was found to be 0.01 % w/w and the “Residual Solvents Ethyl acetate” value is on record as “<LOQ”. Moreover, under setting [4], the “Residual Solvents Hexane” value is “<LOQ”, the “Residual Solvents Methanol” value was found to be 1.6 % w/w, the “Residual Solvents Pentane” value is listed as 0.3 % w/w and the “Residual Solvents Total” value stood at 1.9 % w/w. For the same molecule, the “Water Content” value under setting [4] stood at 1.6 % w/w. Besides, under setting [3], the “Impurity RRT approx. 1.12” value is given as 0.07 and the “Impurity RRT approx. 1.29-1.30” value was found to be 0.09.
As for `COc1ccc2[nH]c3c(c2c1)CCN[C@]31CS[C@@H]2c3c(OC(C)=O)c(C)c4c(c3[C@H](COC1=O)N1[C@@H]2[C@H]2c3c(cc(C)c(OC)c3O)C[C@@H]([C@@H]1O)N2C)OCO4` [Batch P05], under setting [1], the “Residual Solvents AcOEt” value is recorded as “<LOQ”, the “Residual Solvents Acetonitrile” value is reported as “<LOQ”, the “Residual Solvents CH2Cl2” value is on record as “<LOQ” and the “Residual Solvents Hexane” value is given as “<LOQ”. Under setting [1], the “Residual Solvents Methanol” value was “<LOQ”, the “Residual Solvents Pentane” value is reported as “<LOQ”, the “Residual Solvents Total” value was determined as 0.0 % w/w and the “Total Impurities” value turned out to be 0.3 % Area. For the same molecule, the “Water Content” value under setting [1] turned out to be 2.1 % w/w. Also, under setting [2], the “Impurity RRT aprox 0.72-0.76” value is 0.24 % area and the “Impurity RRT aprox 1.10-1.11” value worked out at 0.07 % area.
As for `COc1ccc2[nH]c3c(c2c1)CCN[C@]31CS[C@@H]2c3c(OC(C)=O)c(C)c4c(c3[C@H](COC1=O)N1[C@@H]2[C@H]2c3c(cc(C)c(OC)c3O)C[C@@H]([C@@H]1O)N2C)OCO4` [Batch R01], under setting [1], the “Residual Solvents AcOEt” value is reported as “<LOQ”, the “Residual Solvents Acetonitrile” value was “<LOQ”, the “Residual Solvents CH2Cl2” value is given as “<LOQ” and the “Residual Solvents Hexane” value was “<LOQ”. For the same molecule, under setting [1], the “Residual Solvents Methanol” value is on record as “<LOQ”, the “Residual Solvents Pentane” value was “<LOQ”, the “Residual Solvents Total” value stood at 0.0 % w/w and the “Total Impurities” value is listed as 0.3 % Area. Also, the “Water Content” value under setting [1] is 1.9 % w/w. Under setting [2], the “Impurity RRT aprox 0.72-0.76” value turned out to be 0.22 % area and the “Impurity RRT aprox 1.10-1.11” value was found to be 0.09 % area.
